The values that follow come from US20110143948A1, “MOLECULAR SIGNATURES AND BIOMARKERS ASSOCIATED WITH MELANOMA AND METHODS OF USE THEREOF” (priority 2008, published 2011).

The data set deals with ncRNAs (SEQ ID NO 28-89). Description: ncRNA arrays of melanocytes, keratinocytes, normal skin, melanoma cell lines and patient samples. Set-up: species or system human. The settings on record: for ncRNA array expression, patient 2: melanoma patient 2 sample compared to normal skin; for ncRNA array expression, patient 3: melanoma patient 3 sample compared to normal skin; for ncRNA array expression, patient 4: melanoma patient 4 sample compared to normal skin; for ncRNA array expression, patient 5: melanoma patient 5 sample compared to normal skin; for ncRNA array expression, patient 6: melanoma patient 6 sample compared to normal skin; for ncRNA array expression, patient 7: melanoma patient 7 sample compared to normal skin; for ncRNA array expression, patient 8: melanoma patient 8 sample compared to normal skin; for ncRNA array expression, patient 9: melanoma patient 9 sample compared to normal skin; for ncRNA array expression, patient 10: melanoma patient 10 sample compared to normal skin; for ncRNA array expression, patient 19: melanoma patient 19 sample compared to normal skin; for ncRNA array expression, patient 20: melanoma patient 20 sample compared to normal skin; for ncRNA array expression, patient 21: melanoma patient 21 sample compared to normal skin; for ncRNA array expression, patient 22: melanoma patient 22 sample compared to normal skin; for ncRNA array expression, patient 23: melanoma patient 23 sample compared to normal skin; for ncRNA array expression, patient 24: melanoma patient 24 sample compared to normal skin; for ncRNA array expression, patient 25: melanoma patient 25 sample compared to normal skin; for ncRNA array expression, patient 26: melanoma patient 26 sample compared to normal skin; for ncRNA array expression, patient 27: melanoma patient 27 sample compared to normal skin; for ncRNA array expression, patient 28: melanoma patient 28 sample compared to normal skin; for ncRNA array expression, patient 29: melanoma patient 29 sample compared to normal skin; for ncRNA array expression, patient 30: melanoma patient 30 sample compared to normal skin. In outline: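 Differential ncRNA expression was defined against melanocytes or normal skin after subtracting keratinocyte-specific signals, with confirmation by qRT-PCR and Northern blot. Samples were melanoma cell lines, patient tumours, melanocytes, keratinocytes and normal skin, hybridised to a >10,000-probe (>200 nt) ncRNA array that also carries RefSeq mRNA probes.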

On to “SEQ ID NO 40 (GTTAAAGACTAAATTAGTGATTTGGGAGATCAAGCCAATGGGCTTGTCTAAAACCTAGTC; listed as DNA, chemistry not given here; listed as Homo sapiens)”, for which the “ncRNA array expression, patient 2” value turned out to be 1.341; the “ncRNA array expression, patient 3” value is on record as 1.98; the “ncRNA array expression, patient 4” value turned out to be 2.261; the “ncRNA array expression, patient 5” value was 0.52. The “ncRNA array expression, patient 6” value came out at 1.498; the “ncRNA array expression, patient 7” value was determined as 0.4373; the “ncRNA array expression, patient 8” value came to 1.771; the “ncRNA array expression, patient 9” value is given as 0.4625. Further, the “ncRNA array expression, patient 10” value turned out to be 0.3577; the “ncRNA array expression, patient 19” value was determined as 0.3342; the “ncRNA array expression, patient 20” value stood at 0.9994; the “ncRNA array expression, patient 21” value was determined as 0.489. The “ncRNA array expression, patient 22” value came out at 0.9011; the “ncRNA array expression, patient 23” value is listed as 1.125; the “ncRNA array expression, patient 24” value was 0.452; the “ncRNA array expression, patient 25” value is recorded as 2.17. Moreover, the “ncRNA array expression, patient 26” value is reported as 2.021; the “ncRNA array expression, patient 27” value came out at 1.467; the “ncRNA array expression, patient 28” value is on record as 1.364; the “ncRNA array expression, patient 29” value is 1.245. Also, the “ncRNA array expression, patient 30” value is 0.7348.

Consider “SEQ ID NO 86 (AAAATTATTTTATCTTAAGTTTCCATTTAGTTGATTAAAAATAGGGTTATGAATGTTAAA; listed as DNA, chemistry not given here; listed as Homo sapiens)”, for which the “ncRNA array expression, patient 2” value is 2.021; the “ncRNA array expression, patient 3” value amounted to 1.628; the “ncRNA array expression, patient 4” value came to 5.076; the “ncRNA array expression, patient 5” value is −0.09781. The “ncRNA array expression, patient 6” value is recorded as −0.05485; the “ncRNA array expression, patient 7” value is −0.1079; the “ncRNA array expression, patient 8” value was 0.751; the “ncRNA array expression, patient 9” value worked out at 0.02401. The “ncRNA array expression, patient 10” value was found to be 1.097; the “ncRNA array expression, patient 19” value was 1.409; the “ncRNA array expression, patient 20” value worked out at 0.8906; the “ncRNA array expression, patient 21” value is given as 1.056. The “ncRNA array expression, patient 22” value is reported as −0.01773; the “ncRNA array expression, patient 23” value is on record as −0.00853; the “ncRNA array expression, patient 24” value was 2.72; the “ncRNA array expression, patient 25” value is recorded as 3.621. The “ncRNA array expression, patient 26” value was 3.088; the “ncRNA array expression, patient 27” value came to 5.119; the “ncRNA array expression, patient 28” value is listed as −0.07222; the “ncRNA array expression, patient 29” value was −0.07156. For the same substance, the “ncRNA array expression, patient 30” value came out at 1.029.

For the substance “SEQ ID NO 71 (AAAATTCCAAGAGGGCCTTTTCGAATAGACGCATGAACGGTGTTTGTGTCTGGATCGTCC; listed as DNA, chemistry not given here; listed as Homo sapiens)”, the “ncRNA array expression, patient 2” value worked out at 0.7413; the “ncRNA array expression, patient 3” value amounted to 0.6126; the “ncRNA array expression, patient 4” value is given as 1.336; the “ncRNA array expression, patient 5” value is 2.628. Further, the “ncRNA array expression, patient 6” value came out at 1.002; the “ncRNA array expression, patient 7” value is 1.936; the “ncRNA array expression, patient 8” value was determined as 0.7221; the “ncRNA array expression, patient 9” value is listed as 0.1592. Besides, the “ncRNA array expression, patient 10” value was 1.787; the “ncRNA array expression, patient 19” value was determined as 3.439; the “ncRNA array expression, patient 20” value was 1.577; the “ncRNA array expression, patient 21” value is given as 1.245. Besides, the “ncRNA array expression, patient 22” value came out at 1.105; the “ncRNA array expression, patient 23” value worked out at 0.258; the “ncRNA array expression, patient 24” value was 2.527; the “ncRNA array expression, patient 25” value was 2.034. Besides, the “ncRNA array expression, patient 26” value turned out to be 1.058; the “ncRNA array expression, patient 27” value was 1.849; the “ncRNA array expression, patient 28” value is on record as 0.926; the “ncRNA array expression, patient 29” value worked out at 2.387. In addition, the “ncRNA array expression, patient 30” value was −2.464.
